Laboratory results as given in the NIST ThermoML archive (doi:10.1016/j.fluid.2008.10.003).

Assay: isobaric coefficient of expansion; xn = mol fraction of the nth substance listed
Details: 328.15 K, calorimetric method

CCCCCCO [hexan-1-ol] + CCCCCC
isobaric coefficient of expansion
Details	5000 kPa	10000 kPa	15000 kPa	20000 kPa	25000 kPa	30000 kPa	35000 kPa	40000 kPa	45000 kPa	50000 kPa
x1 = 0.0321	0.00143 1/K	0.00135 1/K	0.00128 1/K	0.00122 1/K	0.00117 1/K	0.00112 1/K	0.00108 1/K	0.00104 1/K	0.00101 1/K	0.000976 1/K
x1 = 0.041	0.00143 1/K	0.00135 1/K	0.00128 1/K	0.00122 1/K	0.00117 1/K	0.00112 1/K	0.00108 1/K	0.00103 1/K	0.001 1/K	0.000972 1/K
x1 = 0.0946	0.00141 1/K	0.00133 1/K	0.00126 1/K	0.0012 1/K	0.00116 1/K	0.00111 1/K	0.00107 1/K	0.00103 1/K	0.001 1/K	0.000972 1/K
x1 = 0.1679	0.00136 1/K	0.0013 1/K	0.00123 1/K	0.00118 1/K	0.00113 1/K	0.00109 1/K	0.00105 1/K	0.00101 1/K	0.000982 1/K	0.000952 1/K
x1 = 0.2153	0.00134 1/K	0.00127 1/K	0.00121 1/K	0.00116 1/K	0.00112 1/K	0.00107 1/K	0.00104 1/K	0.000999 1/K	0.000971 1/K	0.000945 1/K
x1 = 0.3016	0.00129 1/K	0.00122 1/K	0.00117 1/K	0.00112 1/K	0.00108 1/K	0.00104 1/K	0.00101 1/K	0.000975 1/K	0.000948 1/K	0.000922 1/K
x1 = 0.4075	0.00123 1/K	0.00117 1/K	0.00113 1/K	0.00108 1/K	0.00104 1/K	0.00101 1/K	0.000977 1/K	0.000948 1/K	0.00092 1/K	0.000894 1/K
x1 = 0.503	0.00118 1/K	0.00113 1/K	0.00108 1/K	0.00104 1/K	0.00101 1/K	0.000979 1/K	0.000952 1/K	0.000922 1/K	0.000899 1/K	0.000877 1/K
x1 = 0.594	0.00113 1/K	0.00108 1/K	0.00105 1/K	0.00101 1/K	0.00098 1/K	0.000949 1/K	0.000921 1/K	0.000893 1/K	0.000872 1/K	0.000851 1/K
x1 = 0.6827	0.00108 1/K	0.00104 1/K	0.00101 1/K	0.000973 1/K	0.000945 1/K	0.000918 1/K	0.000891 1/K	0.000865 1/K	0.000843 1/K	0.000823 1/K
x1 = 0.8013	0.00102 1/K	0.000985 1/K	0.000957 1/K	0.000926 1/K	0.0009 1/K	0.000874 1/K	0.00085 1/K	0.000825 1/K	0.000808 1/K	0.000789 1/K
x1 = 0.8934	0.000972 1/K	0.000945 1/K	0.000917 1/K	0.000889 1/K	0.000869 1/K	0.000845 1/K	0.000823 1/K	0.000802 1/K	0.000783 1/K	0.000767 1/K
x1 = 1	0.000929 1/K	0.0009 1/K	0.000876 1/K	0.000854 1/K	0.000833 1/K	0.000813 1/K	0.000794 1/K	0.000776 1/K	0.000759 1/K	0.000745 1/K
